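Method: 48-hour compound exposure of cells in 96-well plates, five concentrations, linear interpolation of endpoints. At the GI50, growth is halved.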 The source made the active and inactive calls. Cut-off read from the data, not from the text of the source: active = GI50 up to about 1.1 µM and inactive = higher. Where a SMILES comes first, the peptide text is derived from it. [ ]: non-standard residue; d: D form. The star is where a group is joined. mTyr = N[CH](Cc1cccc(O)c1)C(=O)O; Cbz = O=C(OCc1ccccc1)*; OBn = c1ccc(CO*)cc1
How the values were obtained:
Assay in all cases: NCI anticancer screen, dose series, 48 h
[1] = tested on: BT-549
[2] = tested on: CAKI-1
[3] = tested on: COLO 205
[4] = tested on: HCC 2998
[5] = tested on: HCT-15
[6] = tested on: Hs-578T
[7] = tested on: K562
[8] = tested on: LOX IMVI
[9] = tested on: MCF7
[10] = tested on: NCI-H226
[11] = tested on: OVCAR-3
[12] = tested on: OVCAR-8
[13] = tested on: PC-3
[14] = tested on: RPMI-8226
[15] = tested on: SF-268
[16] = tested on: SK-MEL-28
[17] = tested on: SK-MEL-2
[18] = tested on: SW-620
[19] = tested on: T47D
[20] = tested on: U-251

Row | Compound | GI50 [1] | GI50 [2] | GI50 [3] | GI50 [4] | GI50 [5] | GI50 [6] | GI50 [7] | GI50 [8] | GI50 [9] | GI50 [10] | GI50 [11] | GI50 [12] | GI50 [13] | GI50 [14] | GI50 [15] | GI50 [16] | GI50 [17] | GI50 [18] | GI50 [19] | GI50 [20]
1 | O=C(c1ccc(Cl)cc1Cl)N(Cc1cccnc1)C(=S)N(Cc1cccnc1)C(=O)c1ccc(Cl)cc1Cl | 3.72 µM (inactive) | 11.6 µM (inactive) | 2.08 µM (inactive) | 3.4 µM (inactive) | 3.12 µM | 21 µM (inactive) | 3.52 µM (inactive) | 3.64 µM (inactive) | 2.58 µM (inactive) | 16.7 µM (inactive) | 2.67 µM (inactive) | 3.35 µM (inactive) | 2.4 µM (inactive) | 0.678 µM (active) | 4.68 µM (inactive) | 10.9 µM (inactive) | 3.58 µM (inactive) | 3.68 µM (inactive) | 11.4 µM (inactive) | 3.15 µM (inactive)
2 | O=C(CCc1cccc(O)c1)NCCc1cccc(OCc2ccccc2)c1 | 16.1 µM (inactive) | 26.9 µM (inactive) | 19.7 µM (inactive) | 17.3 µM (inactive) | 19.9 µM | 16.4 µM (inactive) | 20.5 µM (inactive) | 15.6 µM (inactive) | 18.8 µM (inactive) | 11.4 µM (inactive) | 6.55 µM (inactive) | 26.7 µM (inactive) | 10.3 µM (inactive) | 16.2 µM (inactive) | 15.3 µM (inactive) | 16.1 µM (inactive) | 15.6 µM (inactive) | 21.3 µM (inactive) | 18.8 µM (inactive) | 16.5 µM (inactive)
3 | CC(C)=CCNc1ncnc2c1ncn2CCC#N | > 100 µM (inactive) |  | > 100 µM (inactive) | > 100 µM (inactive) | > 100 µM | > 100 µM (inactive) | > 100 µM (inactive) | > 100 µM (inactive) | > 100 µM (inactive) | > 100 µM (inactive) | > 100 µM (inactive) | > 100 µM (inactive) | > 100 µM (inactive) | > 100 µM (inactive) | > 100 µM (inactive) | > 100 µM (inactive) |  | > 100 µM (inactive) | > 100 µM (inactive) | > 100 µM (inactive)
4 | O=C(O[C@H]1[C@@H](O)[C@H](n2cnc3c(Cl)ncnc32)O[C@@H]1COC(c1ccccc1)(c1ccccc1)c1ccccc1)c1ccccc1 | 18.2 µM (inactive) | 2.62 µM (inactive) | 15.9 µM (inactive) | 16.1 µM (inactive) | 17.4 µM | 2.9 µM (inactive) | 3.6 µM (inactive) | 4.91 µM (inactive) | 4.91 µM (inactive) | 13 µM (inactive) | 14.2 µM (inactive) | 25.4 µM (inactive) | 11 µM (inactive) | 2.25 µM (inactive) | 15.4 µM (inactive) | 46.3 µM (inactive) | 21.2 µM (inactive) | 54.5 µM (inactive) | 3.98 µM (inactive) | 22.8 µM (inactive)
5 | COC(=O)CNC(=O)Nc1cc(N2C(=O)ON3C2C(C)(C)N(O)C3(C)C)ccc1C (stereo unspecified) | > 100 µM (inactive) | > 100 µM (inactive) | > 100 µM (inactive) | > 100 µM (inactive) | 66.5 µM | > 100 µM (inactive) | > 100 µM (inactive) | > 100 µM (inactive) | > 100 µM (inactive) | > 100 µM (inactive) | > 100 µM (inactive) | > 100 µM (inactive) | > 100 µM (inactive) |  | > 100 µM (inactive) | > 100 µM (inactive) | 59.4 µM (inactive) | > 100 µM (inactive) | > 100 µM (inactive) | > 100 µM (inactive)
6 | O=Cc1ccc2ccocc1-2 | > 100 µM (inactive) | > 100 µM (inactive) | > 100 µM (inactive) | > 100 µM (inactive) | > 100 µM | > 100 µM (inactive) | > 100 µM (inactive) | > 100 µM (inactive) | > 100 µM (inactive) | > 100 µM (inactive) | > 100 µM (inactive) | > 100 µM (inactive) | > 100 µM (inactive) | > 100 µM (inactive) | > 100 µM (inactive) |  | > 100 µM (inactive) | > 100 µM (inactive) | > 100 µM (inactive) | > 100 µM (inactive)
7 | CN1CCN(c2nc3cc(F)ccc3n3cccc23)CC1 | 49.2 µM (inactive) | 22 µM (inactive) | 26.9 µM (inactive) | 42.1 µM (inactive) | 32.1 µM | 31.4 µM (inactive) | 20.4 µM (inactive) | 15.8 µM (inactive) | 15.1 µM (inactive) | 13.7 µM (inactive) | 82.8 µM (inactive) | 51.8 µM (inactive) | 28.4 µM (inactive) | 40.6 µM (inactive) | 48.6 µM (inactive) | 21.4 µM (inactive) |  | 30.5 µM (inactive) | 29 µM (inactive) | 41.5 µM (inactive)
8 | COC(=O)C(Cc1cccc(O)c1)NC(=O)C(CC(=O)OCc1ccccc1)NC(=O)OCc1ccccc1 (stereo unspecified) (Cbz-Asp(OBn)-[mTyr]-OMe; configuration not given here) | > 100 µM (inactive) |  | > 100 µM (inactive) | > 100 µM (inactive) | > 100 µM | > 100 µM (inactive) | > 100 µM (inactive) |  | > 100 µM (inactive) | > 100 µM (inactive) |  | > 100 µM (inactive) | > 100 µM (inactive) | 70.5 µM (inactive) |  | > 100 µM (inactive) | > 100 µM (inactive) | > 100 µM (inactive) | 15.9 µM (inactive) | > 100 µM (inactive)
